Measured values published in US20200239530A1, “COMPOUNDS AND METHODS OF MODULATING PROTEIN DEGRADATION” (Vividion Therapeutics, Inc., priority 2017, published 2020).

Experiments:
[1] = target: T1, DDX50 ATP-dependent RNA helicase DDX50 (Homo sapiens, UniProt Q9BQ39); assay: Cysteine liganding, probe competition; type: binding
T1 construct: 200 μL of lysate containing 5 mg/ml proteome was treated with 2 μL of 100× compound stock; endogenous in cells
T1 sequence (Q9BQ39 1-737): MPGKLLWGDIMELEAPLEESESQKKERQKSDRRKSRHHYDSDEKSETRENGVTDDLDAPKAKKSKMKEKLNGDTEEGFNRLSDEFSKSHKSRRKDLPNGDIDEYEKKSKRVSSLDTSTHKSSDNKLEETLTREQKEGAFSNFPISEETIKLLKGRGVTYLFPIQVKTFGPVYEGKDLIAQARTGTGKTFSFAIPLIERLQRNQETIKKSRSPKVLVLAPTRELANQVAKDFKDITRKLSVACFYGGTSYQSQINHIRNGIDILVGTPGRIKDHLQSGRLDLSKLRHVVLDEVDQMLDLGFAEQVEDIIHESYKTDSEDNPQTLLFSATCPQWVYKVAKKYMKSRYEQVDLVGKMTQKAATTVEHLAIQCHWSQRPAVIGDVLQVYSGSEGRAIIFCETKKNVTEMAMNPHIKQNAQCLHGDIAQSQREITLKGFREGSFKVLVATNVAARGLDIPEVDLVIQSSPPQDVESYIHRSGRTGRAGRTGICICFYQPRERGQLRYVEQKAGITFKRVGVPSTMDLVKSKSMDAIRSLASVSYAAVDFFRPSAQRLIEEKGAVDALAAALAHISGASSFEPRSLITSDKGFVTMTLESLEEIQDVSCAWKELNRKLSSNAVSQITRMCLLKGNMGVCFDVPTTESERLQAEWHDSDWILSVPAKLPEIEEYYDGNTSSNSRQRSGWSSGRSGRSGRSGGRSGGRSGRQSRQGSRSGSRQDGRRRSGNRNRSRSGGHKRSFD
In short: (§1)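 Read-out is loss of desthiobiotin iodoacetamide labelling at cysteines, measured on streptavidin-enriched tryptic peptides. Compound preincubation ran 1 hr at 25° C in PBS lysate holding 5 mg/ml proteome before the probe was added.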

LGMN Legumain = target: T2, LGMN Legumain (Homo sapiens, UniProt Q99538); assay: Cysteine liganding, probe competition; type: binding; conditions: for 100 Max / 100 ave / 500 Max / 500 ave: uniprot Q99538
T2 construct: Cells were resuspended in cold PBS on ice and sonicated with a probe sonicator to achieve lysis; endogenous in cells
T2 sequence (Q99538 18-323): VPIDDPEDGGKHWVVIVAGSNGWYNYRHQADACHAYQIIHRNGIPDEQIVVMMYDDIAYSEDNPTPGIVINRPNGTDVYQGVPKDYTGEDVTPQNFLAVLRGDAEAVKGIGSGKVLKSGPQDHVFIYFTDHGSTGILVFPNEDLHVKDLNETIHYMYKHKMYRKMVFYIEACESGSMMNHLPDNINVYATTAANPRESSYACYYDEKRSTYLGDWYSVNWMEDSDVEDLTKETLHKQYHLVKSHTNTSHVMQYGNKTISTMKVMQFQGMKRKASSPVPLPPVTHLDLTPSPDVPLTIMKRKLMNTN
In short: as §1

| Structure (SMILES) | 100 Max ([1]; uniprot Q9BQ39) | 100 ave ([1]; uniprot Q9BQ39) | 500 Max ([1]; uniprot Q9BQ39) | 500 ave ([1]; uniprot Q9BQ39) | 100 Max (LGMN Legumain) | 100 ave (LGMN Legumain) | 500 Max (LGMN Legumain) | 500 ave (LGMN Legumain) | Liganded ([1]; DDX50 Res# 603, uniprot Q9BQ39) | Liganded (LGMN Legumain; LGMN Res# 50, uniprot Q99538) |
| --- | --- | --- | --- | --- | --- | --- | --- | --- | --- | --- |
| O=C(CCl)Nc1cc(C(F)(F)F)cc(C(F)(F)F)c1 [KBO3] | −9.62 | −13.925 | 28.63 | 22.82 | 12.45 | 0.755 | 60.93 | 60.93 |  |  |
| COc1ccc2c(c1)CCCN2C(=O)CCl [KB02] |  |  |  |  | 33.6 | 20.31 | 78.38 | 78.38 | YES | YES |
